Tested on: reprogramming resistant regions (RRRs) / ZGA genes
Test: RNA-seq of late 8-cell human SCNT embryos with or without KDM4A mRNA injection (ZGA of RRRs, KDM4A-responsive genes)
Format: cell-based
From the text: A sliding window (size 20 kb, step size 10 kb) was used to assess the genome-wide expression level of 4-cell and 8-cell human embryos. For each window, the expression level was quantified with normalized RPM (reads per millions of uniquely mapped reads). […] These activated regions were classed into three groups based on their expression differences in human SCNT and IVF 8-cell embryos.
The SCNT embryos used for ZGA analysis were generated using oocytes donated by a single healthy person (#64) and dermal fibroblast cells from an AMD patient (DFB-8). SCNT and IVF embryos were cultured up to late 8-cell stage, when the compaction of blastomeres is initiated, then they were treated briefly with acid Tyrode solution to remove zona pellucida. To prepare for the 8-cell SCNT embryo, oocytes from a single oocyte donor, and skin fibroblast cells from a single somatic nuclear donor were used. All the procedures are the same as described in the “Human SCNT procedure and KMD4A mRNA injection” section. Only embryos that reached the late 8-cell stage synchronically 74 hours post activation were collected and used for this experiment.
For preparation of the control IVF embryos, several donated early 8-cell stage IVF embryos were thawed and cultured for 5-7 hours to allow them to reach late 8-cell stage before being processed. After removal of the zona pellucida, the denuded embryos were washed 3 times in PBS, loaded into RNAse and DNAse free PCR tubes, spin downed, and snap frozen in liquid nitrogen. Then, they were kept at −80° C. until use. As controls, dermal fibroblast cells of somatic nuclear donors were also prepared. Those fibroblast cells were cultured in a 25 cm^2 flask in DMEM 10% FBS, and approximately 10,000 cells/donor were collected, snap frozen, and stored at −80° C. until use.
Five 8-cell embryos for each group were directly lysed and used for cDNA synthesis using SMART-Seq v4 Ultra Low Input RNA Kit (Clontech). For MEF donor, 10 ng total RNA was used for cDNA synthesis using SMART-Seq v4 Ultra Low Input RNA Kit. After amplification, the cDNA samples were fragmented using Covaris sonicator M220 to an average size of 150 bp (Covaris). Sequencing libraries were made with the fragmented DNA using NEBNext Ultra DNA Library Prep Kit for Illumina according to manufacturer's instruction (New England Biolabs) with different barcodes. For each RNA-seq analysis of hESCs, 1 μg total RNA was used for mRNA purification. Barcoded RNA-seq libraries were generated using NEBNext Ultra Directional RNA Library Prep Kit for Illumina (New England Biolabs). Single end 50 bp sequencing was performed on a HiSeq 2500 sequencer (Illumina). Sequencing reads were mapped to the human genome (hg19) with Tophat2. All programs were performed with default settings (unless otherwise specified). At least 22 million uniquely mapped reads were obtained for each sequencing library, and subsequently assembled into transcripts guided by the reference annotation (Refseq gene models) with Cufflinks v2.0.2. Expression level of each gene was quantified with normalized FPKM (fragments per kilobase of exon per million mapped fragments). Statistical analyses were performed with R (available at: “www.r-project.org/”). Independent 2 group Wilcoxon rank sum tests were used to compare distributions using the wilcox.test function in R. Pearson's r coefficient was calculated using the cor function with default parameters. The hierarchical clustering analysis of the global gene expression pattern in different samples was carried out using heatmap.2 function (gplots package) in R.

[1] = 8-cell SCNT embryos, FC>2 versus non-injected

KDM4A mRNA: in vitro transcribed mRNA of full length human KDM4A/JHDM3A cDNA, an H3K9me3 demethylase (SEQ ID NO: 1)
fraction of the 318 RRRs markedly up-regulated [1]: 50% | number of the 318 RRRs markedly up-regulated [1]: 158 | number of genes significantly up-regulated (KDM4A-responsive genes) (8-cell SCNT embryos, FPKM>5, FC>2): 206 | 12-Sep Fold Change (log2) [KDM4A SCNT/Control SCNT] (8-cell embryos): 2 log2 | AASDH Fold Change (log2) [KDM4A SCNT/Control SCNT] (8-cell embryos): 1.19 log2 | ACBD5 Fold Change (log2) [KDM4A SCNT/Control SCNT] (8-cell embryos): 1.32 log2 | ALG5 Fold Change (log2) [KDM4A SCNT/Control SCNT] (8-cell embryos): 1.89 log2 | ALPPL2 Fold Change (log2) [KDM4A SCNT/Control SCNT] (8-cell embryos): 1.25 log2 | APOC1P1 Fold Change (log2) [KDM4A SCNT/Control SCNT] (8-cell embryos): 1.03 log2 | ATP5J2-PTCD1 Fold Change (log2) [KDM4A SCNT/Control SCNT] (8-cell embryos): 5.53 log2 | BEX2 Fold Change (log2) [KDM4A SCNT/Control SCNT] (8-cell embryos): 1.05 log2 | BLVRB Fold Change (log2) [KDM4A SCNT/Control SCNT] (8-cell embryos): 1.56 log2 | BTAF1 Fold Change (log2) [KDM4A SCNT/Control SCNT] (8-cell embryos): 1.93 log2 | BTK Fold Change (log2) [KDM4A SCNT/Control SCNT] (8-cell embryos): 1.09 log2 | BUD31 Fold Change (log2) [KDM4A SCNT/Control SCNT] (8-cell embryos): 1.19 log2 | C1D Fold Change (log2) [KDM4A SCNT/Control SCNT] (8-cell embryos): 1.67 log2 | C2orf74 Fold Change (log2) [KDM4A SCNT/Control SCNT] (8-cell embryos): 1.28 log2 | C11orf67 Fold Change (log2) [KDM4A SCNT/Control SCNT] (8-cell embryos): 1.34 log2 | C12orf60 Fold Change (log2) [KDM4A SCNT/Control SCNT] (8-cell embryos): 1.78 log2 | C16orf91 Fold Change (log2) [KDM4A SCNT/Control SCNT] (8-cell embryos): 1.24 log2 | C17orf89 Fold Change (log2) [KDM4A SCNT/Control SCNT] (8-cell embryos): 1.09 log2 | C18orf56 Fold Change (log2) [KDM4A SCNT/Control SCNT] (8-cell embryos): 1.43 log2 | C20orf7 Fold Change (log2) [KDM4A SCNT/Control SCNT] (8-cell embryos): 2.14 log2 | CAB39L Fold Change (log2) [KDM4A SCNT/Control SCNT] (8-cell embryos): 1.23 log2 | CCAR1 Fold Change (log2) [KDM4A SCNT/Control SCNT] (8-cell embryos): 1.15 log2 | CCDC86 Fold Change (log2) [KDM4A SCNT/Control SCNT] (8-cell embryos): 1.1 log2 | CCL2 Fold Change (log2) [KDM4A SCNT/Control SCNT] (8-cell embryos): 3.05 log2 | CCL15 Fold Change (log2) [KDM4A SCNT/Control SCNT] (8-cell embryos): 2.82 log2 | CELA3B Fold Change (log2) [KDM4A SCNT/Control SCNT] (8-cell embryos): 1.63 log2 | CENPC1 Fold Change (log2) [KDM4A SCNT/Control SCNT] (8-cell embryos): 1.1 log2 | CLC Fold Change (log2) [KDM4A SCNT/Control SCNT] (8-cell embryos): 3.69 log2 | CLDN6 Fold Change (log2) [KDM4A SCNT/Control SCNT] (8-cell embryos): 1.65 log2 | CLK4 Fold Change (log2) [KDM4A SCNT/Control SCNT] (8-cell embryos): 1.21 log2 | CNKSR3 Fold Change (log2) [KDM4A SCNT/Control SCNT] (8-cell embryos): 1.48 log2 | CNPY4 Fold Change (log2) [KDM4A SCNT/Control SCNT] (8-cell embryos): 1.77 log2 | COX7B2 Fold Change (log2) [KDM4A SCNT/Control SCNT] (8-cell embryos): 3.15 log2 | COX17 Fold Change (log2) [KDM4A SCNT/Control SCNT] (8-cell embryos): 1.44 log2 | CSAG1 Fold Change (log2) [KDM4A SCNT/Control SCNT] (8-cell embryos): 3.27 log2 | CSTF3 Fold Change (log2) [KDM4A SCNT/Control SCNT] (8-cell embryos): 1.29 log2 | CUL2 Fold Change (log2) [KDM4A SCNT/Control SCNT] (8-cell embryos): 1.29 log2 | CXorf61 Fold Change (log2) [KDM4A SCNT/Control SCNT] (8-cell embryos): 2.18 log2 | DDX26B Fold Change (log2) [KDM4A SCNT/Control SCNT] (8-cell embryos): 1.14 log2 | DEFB122 Fold Change (log2) [KDM4A SCNT/Control SCNT] (8-cell embryos): 1.06 log2 | DLEU7 Fold Change (log2) [KDM4A SCNT/Control SCNT] (8-cell embryos): 4.91 log2 | DNASE2 Fold Change (log2) [KDM4A SCNT/Control SCNT] (8-cell embryos): 1.11 log2 | DRAM1 Fold Change (log2) [KDM4A SCNT/Control SCNT] (8-cell embryos): 1.6 log2 | ECE2 Fold Change (log2) [KDM4A SCNT/Control SCNT] (8-cell embryos): 1.09 log2 | EIF1AD Fold Change (log2) [KDM4A SCNT/Control SCNT] (8-cell embryos): 1.18 log2 | ELL2 Fold Change (log2) [KDM4A SCNT/Control SCNT] (8-cell embryos): 1.01 log2 | FAM9A Fold Change (log2) [KDM4A SCNT/Control SCNT] (8-cell embryos): 3.83 log2 | FAM19A3 Fold Change (log2) [KDM4A SCNT/Control SCNT] (8-cell embryos): 2.58 log2 | FAM83D Fold Change (log2) [KDM4A SCNT/Control SCNT] (8-cell embryos): 1.32 log2 | FAM133B Fold Change (log2) [KDM4A SCNT/Control SCNT] (8-cell embryos): 1.1 log2 | FAM151A Fold Change (log2) [KDM4A SCNT/Control SCNT] (8-cell embryos): 1.99 log2 | FAM162A Fold Change (log2) [KDM4A SCNT/Control SCNT] (8-cell embryos): 1.73 log2 | FAM200A Fold Change (log2) [KDM4A SCNT/Control SCNT] (8-cell embryos): 1.17 log2 | FASTKD5 Fold Change (log2) [KDM4A SCNT/Control SCNT] (8-cell embryos): 1.05 log2 | FBXL12 Fold Change (log2) [KDM4A SCNT/Control SCNT] (8-cell embryos): 1.74 log2 | FMR1NB Fold Change (log2) [KDM4A SCNT/Control SCNT] (8-cell embryos): 1.49 log2 | FOXN2 Fold Change (log2) [KDM4A SCNT/Control SCNT] (8-cell embryos): 1.29 log2 | GALM Fold Change (log2) [KDM4A SCNT/Control SCNT] (8-cell embryos): 1.55 log2 | GIP Fold Change (log2) [KDM4A SCNT/Control SCNT] (8-cell embryos): 1.59 log2 | GJA1 Fold Change (log2) [KDM4A SCNT/Control SCNT] (8-cell embryos): 1.36 log2 | GOLGB1 Fold Change (log2) [KDM4A SCNT/Control SCNT] (8-cell embryos): 1.58 log2 | GUCA1B Fold Change (log2) [KDM4A SCNT/Control SCNT] (8-cell embryos): 1.02 log2 | GUSBP1 Fold Change (log2) [KDM4A SCNT/Control SCNT] (8-cell embryos): 1.11 log2 | GUSBP4 Fold Change (log2) [KDM4A SCNT/Control SCNT] (8-cell embryos): 1.12 log2 | H3F3A Fold Change (log2) [KDM4A SCNT/Control SCNT] (8-cell embryos): 1.84 log2 | IFI30 Fold Change (log2) [KDM4A SCNT/Control SCNT] (8-cell embryos): 1.05 log2 | IL13RA2 Fold Change (log2) [KDM4A SCNT/Control SCNT] (8-cell embryos): 1.85 log2 | KHDC1 Fold Change (log2) [KDM4A SCNT/Control SCNT] (8-cell embryos): 1.89 log2 | KHDC1L Fold Change (log2) [KDM4A SCNT/Control SCNT] (8-cell embryos): 1.54 log2 | KITLG Fold Change (log2) [KDM4A SCNT/Control SCNT] (8-cell embryos): 2.36 log2 | KLF17 Fold Change (log2) [KDM4A SCNT/Control SCNT] (8-cell embryos): 1.19 log2 | KLK4 Fold Change (log2) [KDM4A SCNT/Control SCNT] (8-cell embryos): 1.68 log2 | KLK11 Fold Change (log2) [KDM4A SCNT/Control SCNT] (8-cell embryos): 1.76 log2 | KPTN Fold Change (log2) [KDM4A SCNT/Control SCNT] (8-cell embryos): 4.35 log2 | LARP6 Fold Change (log2) [KDM4A SCNT/Control SCNT] (8-cell embryos): 1.35 log2 | LEMD3 Fold Change (log2) [KDM4A SCNT/Control SCNT] (8-cell embryos): 1.11 log2 | LIM2 Fold Change (log2) [KDM4A SCNT/Control SCNT] (8-cell embryos): 1.99 log2 | LINC00263 Fold Change (log2) [KDM4A SCNT/Control SCNT] (8-cell embryos): 1.39 log2 | LOC284408 Fold Change (log2) [KDM4A SCNT/Control SCNT] (8-cell embryos): 2.24 log2 | LOC347411 Fold Change (log2) [KDM4A SCNT/Control SCNT] (8-cell embryos): 1.36 log2 | LOC401397 Fold Change (log2) [KDM4A SCNT/Control SCNT] (8-cell embryos): 1.75 log2 | LOC643955 Fold Change (log2) [KDM4A SCNT/Control SCNT] (8-cell embryos): 1.44 log2 | LOC653513 Fold Change (log2) [KDM4A SCNT/Control SCNT] (8-cell embryos): 2.12 log2 | LOC723809 Fold Change (log2) [KDM4A SCNT/Control SCNT] (8-cell embryos): 1.15 log2 | LOC100129515 Fold Change (log2) [KDM4A SCNT/Control SCNT] (8-cell embryos): 1.03 log2 | LOC100289211 Fold Change (log2) [KDM4A SCNT/Control SCNT] (8-cell embryos): 2.34 log2 | LOC100505854 Fold Change (log2) [KDM4A SCNT/Control SCNT] (8-cell embryos): 1.58 log2 | LOC100506305 Fold Change (log2) [KDM4A SCNT/Control SCNT] (8-cell embryos): 1.2 log2 | LOC100506668 Fold Change (log2) [KDM4A SCNT/Control SCNT] (8-cell embryos): 1.63 log2 | LUC7L Fold Change (log2) [KDM4A SCNT/Control SCNT] (8-cell embryos): 1.28 log2 | M1 Fold Change (log2) [KDM4A SCNT/Control SCNT] (8-cell embryos): 4.71 log2 | MAGEA12 Fold Change (log2) [KDM4A SCNT/Control SCNT] (8-cell embryos): 1.81 log2 | MAGEB2 Fold Change (log2) [KDM4A SCNT/Control SCNT] (8-cell embryos): 3.15 log2 | MATR3 Fold Change (log2) [KDM4A SCNT/Control SCNT] (8-cell embryos): 1.11 log2 | MED31 Fold Change (log2) [KDM4A SCNT/Control SCNT] (8-cell embryos): 1.44 log2 | MFSD11 Fold Change (log2) [KDM4A SCNT/Control SCNT] (8-cell embryos): 1.4 log2 | MPV17L2 Fold Change (log2) [KDM4A SCNT/Control SCNT] (8-cell embryos): 1.54 log2 | MRPL28 Fold Change (log2) [KDM4A SCNT/Control SCNT] (8-cell embryos): 1.59 log2 | MTERF Fold Change (log2) [KDM4A SCNT/Control SCNT] (8-cell embryos): 2.39 log2 | NANOGNB Fold Change (log2) [KDM4A SCNT/Control SCNT] (8-cell embryos): 1.79 log2
